Assay results taken from ChEMBL document CHEMBL2424591 (Bioorg Med Chem, 2013).

target: T1, Ribosyldihydronicotinamide dehydrogenase [quinone] (Homo sapiens, UniProt P16083); experiment: Inhibition of human quinone reductase 2 expressed in Escherichia coli BL21(DE3) using N-methyldihydronicotinamide as co-substrate
T1 sequence (P16083 whole entry): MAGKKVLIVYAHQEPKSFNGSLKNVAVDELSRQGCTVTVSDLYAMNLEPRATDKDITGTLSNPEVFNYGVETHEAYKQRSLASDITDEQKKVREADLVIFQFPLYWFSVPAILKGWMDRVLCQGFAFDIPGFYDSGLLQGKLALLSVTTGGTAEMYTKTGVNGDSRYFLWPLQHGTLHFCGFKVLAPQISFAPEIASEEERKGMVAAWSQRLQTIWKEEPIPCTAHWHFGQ

IC50	SMILES
4.6 µM	COc1cc(/C=C/c2ccc(F)cc2)cc(OC)c1
9.3 µM	COc1ccc(/C=C/c2ccc(O)c(O)c2)cc1
5.5 µM	COc1ccc(/C=C/c2ccc3ccccc3c2)cc1OC
6.7 µM	COc1ccc(/C(C)=C/c2ccc(OC)c(OC)c2)cc1
9.9 µM	COc1cc(/C=C(\C)c2ccc(OC)c(OC)c2)cc(OC)c1
5.9 µM	N#C/C(=C\c1cc(O)cc(O)c1)c1ccc(O)cc1
5.1 µM	OC/C(=C\c1cc(O)cc(O)c1)c1ccc(O)cc1
24.2 µM	COc1ccc(/C(C=O)=C/c2cc(OC)cc(OC)c2)cc1
9.3 µM	NC(=O)/C(=C\c1cc(O)cc(O)c1)c1ccc(O)cc1
25.5 µM	O=C/C(=C/c1cc(O)cc(O)c1)c1ccc(O)cc1
27.5 µM	COc1ccc(/C(=C\c2cc(OC)cc(OC)c2)CO)cc1
27.6 µM	O=C(Nc1ccc(O)cc1)c1cc(O)cc(O)c1
16.8 µM	O=C(Nc1cc(O)cc(O)c1)c1ccc(O)cc1
6 µM	Oc1ccc(/C=C/c2ccc(O)c(O)c2)cc1
20.8 µM	Oc1ccc(/C=C/c2cccc(F)c2)cc1O
10.9 µM	CC/C(=C\c1ccc(N(C)C)cc1)c1cc(O)cc(O)c1

IC50	SMILES
16.3 µM	CC/C(=C\c1cc(OC)cc(OC)c1)c1ccc(OC)c(OC)c1
0.73 µM	COc1cc(/C=C/c2ccc3ccccc3c2)cc(OC)c1
6.8 µM	COc1cccc(/C=C/c2ccc(OC)c(OC)c2)c1
13 µM	COc1ccc(/C=C/c2ccc(N(C)C)cc2)cc1OC
39 µM	C/C(=C\c1cc(O)cc(O)c1)c1ccc(O)cc1
< 14.2 µM	Oc1ccc(/C=C/c2ccc(C(F)(F)F)cc2)cc1O
13 µM	COc1ccc(/C=C(/c2cc(OC)cc(OC)c2)C(F)(F)F)cc1
12 µM	COc1ccc(/C(C)=C/c2cc(O)cc(O)c2)cc1
20.1 µM	COc1ccc(/C(C)=C/c2cc(OC)cc(OC)c2)cc1
33.7 µM	COc1ccc(/C(C)=C/c2cc(O)cc(O)c2)cc1OC
0.18 µM	COc1ccc(/C=C(/c2cccc(C(F)(F)F)c2)C(F)(F)F)cc1OC
2.8 µM	C/C(=C\c1ccc(C(F)(F)F)cc1)c1ccc(O)cc1
4.8 µM	C/C(=C\c1ccc(O)cc1)c1cc(O)cc(O)c1
31.6 µM	COc1ccc(/C(C#N)=C/c2cc(OC)cc(OC)c2)cc1
5.1 µM	COc1cc(/C=C/c2ccc(O)cc2)cc(OC)c1 [PTEROSTILBENE]

SMILES	IC50
COc1cc(/C=C/c2ccc(OC)c(OC)c2)cc(OC)c1 [(E)-3,4,3',5'-TETRAMETHOXYSTILBENE]	37.1 µM
COc1ccc(/C=C/c2cc(OC)cc(OC)c2)cc1 [TRISMETHOXYRESVERATROL]	14.6 µM
